Results as given in ChEMBL document CHEMBL4049383, “Emergence of Small-Molecule Non-RGD-Mimetic Inhibitors for RGD Integrins” (J Med Chem, 2017).

Assays:
[1] = target: Integrin alpha-IIb/beta-3 (Homo sapiens, UniProt P05106+P08514)
Description: Displacement of [3H]UR-3189 from integrin alpha2b beta3 receptor in resting human platelet

[2] = Stability of the compound in human microsomes; type: ADME, Microsome; conditions: read-out: Stability

Integrin alpha-IIb/beta-3, sequence (P05106 27-788 limits assumed): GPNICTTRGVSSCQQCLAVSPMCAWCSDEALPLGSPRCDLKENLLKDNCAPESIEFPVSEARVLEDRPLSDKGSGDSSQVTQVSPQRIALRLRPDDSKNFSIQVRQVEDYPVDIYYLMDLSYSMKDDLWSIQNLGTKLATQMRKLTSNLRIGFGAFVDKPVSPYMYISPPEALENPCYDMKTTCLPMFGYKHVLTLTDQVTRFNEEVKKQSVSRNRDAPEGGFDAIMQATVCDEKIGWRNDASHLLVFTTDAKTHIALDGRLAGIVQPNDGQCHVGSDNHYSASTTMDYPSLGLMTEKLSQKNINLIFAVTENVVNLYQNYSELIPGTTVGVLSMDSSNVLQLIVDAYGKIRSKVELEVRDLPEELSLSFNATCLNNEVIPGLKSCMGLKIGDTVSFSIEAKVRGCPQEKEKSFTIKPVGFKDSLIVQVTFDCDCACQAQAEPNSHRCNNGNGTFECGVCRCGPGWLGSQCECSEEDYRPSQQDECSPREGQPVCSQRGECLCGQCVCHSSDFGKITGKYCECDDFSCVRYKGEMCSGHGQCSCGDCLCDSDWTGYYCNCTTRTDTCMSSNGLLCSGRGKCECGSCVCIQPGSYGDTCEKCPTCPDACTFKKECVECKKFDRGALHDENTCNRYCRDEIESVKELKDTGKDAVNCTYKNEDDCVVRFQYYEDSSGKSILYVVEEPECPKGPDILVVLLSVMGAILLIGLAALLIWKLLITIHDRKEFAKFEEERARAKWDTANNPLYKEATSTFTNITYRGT
Integrin alpha-IIb/beta-3, sequence (P08514 32-887 limits assumed): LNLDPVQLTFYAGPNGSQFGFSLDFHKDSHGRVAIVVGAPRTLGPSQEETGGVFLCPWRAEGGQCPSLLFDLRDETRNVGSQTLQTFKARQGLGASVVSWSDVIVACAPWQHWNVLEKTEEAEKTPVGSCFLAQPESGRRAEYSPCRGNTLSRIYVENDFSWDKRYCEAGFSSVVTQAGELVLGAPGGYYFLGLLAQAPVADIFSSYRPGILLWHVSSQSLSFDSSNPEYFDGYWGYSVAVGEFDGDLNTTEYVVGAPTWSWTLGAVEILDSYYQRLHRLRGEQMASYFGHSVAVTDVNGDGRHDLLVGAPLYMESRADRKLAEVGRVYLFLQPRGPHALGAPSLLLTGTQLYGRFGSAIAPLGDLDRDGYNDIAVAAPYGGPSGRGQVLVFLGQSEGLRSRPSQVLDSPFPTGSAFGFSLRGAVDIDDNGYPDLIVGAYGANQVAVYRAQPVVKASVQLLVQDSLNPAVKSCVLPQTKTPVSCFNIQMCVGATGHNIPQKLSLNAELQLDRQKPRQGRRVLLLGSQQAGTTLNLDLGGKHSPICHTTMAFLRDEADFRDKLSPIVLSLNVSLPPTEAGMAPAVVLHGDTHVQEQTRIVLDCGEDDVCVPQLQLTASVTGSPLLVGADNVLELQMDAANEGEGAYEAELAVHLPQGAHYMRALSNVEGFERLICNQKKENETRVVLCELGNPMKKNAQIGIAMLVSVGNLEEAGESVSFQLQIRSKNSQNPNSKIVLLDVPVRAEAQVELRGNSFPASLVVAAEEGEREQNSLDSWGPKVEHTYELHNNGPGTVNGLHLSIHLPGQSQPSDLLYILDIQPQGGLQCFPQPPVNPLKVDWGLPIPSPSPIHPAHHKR
Integrin alpha-IIb/beta-3, sequence (P08514 891-1039 limits assumed): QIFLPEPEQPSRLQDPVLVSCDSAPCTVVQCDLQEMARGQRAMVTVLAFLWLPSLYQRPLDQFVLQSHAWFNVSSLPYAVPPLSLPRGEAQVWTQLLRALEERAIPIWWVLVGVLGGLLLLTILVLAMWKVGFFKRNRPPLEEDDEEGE

Ki [1] [nM] | microsomal CLint [2] [µL/min/mg] | Structure (SMILES)
< 1 |  | [H]/N=C(\N)c1ccc(C(=O)N[C@@H](Cc2ccc([N+](=O)[O-])cc2)C(=O)N2CCc3nn(CC(=O)O)cc3C2)cc1
 | 23.2 | NCC(=O)Nc1cncc(-c2nn3c(=O)cc(N4CCNCC4)nc3s2)c1 [ZALUNFIBAN]
